pKi: −log10 of the molar value.
Each compound was assayed against T1, human subtype 5 somatostatin receptor (Homo sapiens, UniProt P35346) (assay: SSTR5 radioligand binding assay (125I-labeled 11-Tyr somatostatin-14 tracer, membranes of transfected CHO cells)). Conditions: CHO cell membranes, Ki calculated from IC50 by Cheng-Prussoff equation.
T1 construct: host or cells: CHO cells, stably transfected; membranes prepared from them
Experimental: A CHO cell line stably transfected with a plasmid encoding the human subtype 5 somatostatin receptor (GenBank accession number D16827) was obtained from Euroscreen. Cells were cultured and used for binding and functional assays.
Membranes of these cells were prepared by sonication in the presence of protease inhibitors and subsequent fractionating centrifugation. The protein concentration in the membrane preparation was determined using a commercial kit (BCA kit, Pierce, USA). Membranes were stored at −80° C. until use. After thawing, membranes were diluted in assay buffer (50 mM Tris-HCl at pH 7.4, 5 mM MgCl2 and 0.20% BSA) and subjected to dounce homogenization.
For binding studies, 0.1 mL membrane suspension, corresponding to app. 6×10^−15 mol receptor, was incubated for 1 h at room temperature with 0.05 nM ^125I-labeled tracer (11-Tyr somatostatin-14, Perkin-Elmer) and either test compounds in varying concentrations or, for the determination of non-specific binding, 0.001 mM non-labeled somatostatin-14. The incubation was stopped by filtration through GF/B glassfiber filters and washing with ice-cold wash buffer (50 mM Tris-HCl at pH 7.4). The bound radioactivity was measured after application of a scintillation cocktail (Microscint 40) and expressed as disintegrations per minute (dpm).
The receptor concentration was determined in a prior saturation experiment where a fixed, arbitrary amount of membranes was incubated with a concentration range of radio-labeled tracer. This allows estimating the total number of specific binding sites per amount of protein (i.e., Bmax), typically between 1 and 5 pmol/mg.
The concentration of the test compound required to result in half maximal inhibition of binding of the radio-labeled tracer (IC50) was estimated from a concentration-versus-dpm graph. The binding affinity (Ki) was calculated from the IC50 by applying the Cheng-Prussoff equation for single binding sites.

T1 sequence (P35346 whole entry): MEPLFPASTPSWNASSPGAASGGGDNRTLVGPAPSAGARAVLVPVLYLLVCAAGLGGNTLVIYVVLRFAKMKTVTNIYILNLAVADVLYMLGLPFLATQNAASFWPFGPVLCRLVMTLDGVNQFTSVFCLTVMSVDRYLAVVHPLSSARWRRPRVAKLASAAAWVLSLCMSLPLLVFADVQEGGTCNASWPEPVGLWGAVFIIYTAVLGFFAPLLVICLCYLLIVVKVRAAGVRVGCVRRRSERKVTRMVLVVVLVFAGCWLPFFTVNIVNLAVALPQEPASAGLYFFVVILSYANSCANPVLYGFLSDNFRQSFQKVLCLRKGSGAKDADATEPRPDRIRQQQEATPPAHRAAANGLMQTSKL

Compound | pKi
CCOc1cc(CN2CCC(Nc3nc(N)c4cc(C)ccc4n3)CC2)ccc1OC [Example 8, N^2-[1-(3-Ethoxy-4-methoxy-benzyl)-piperidin-4-yl]-6-methyl-quinazoline-2,4-diamine] | 6.31
CCOc1cc(CN2CCC(Nc3ncc(C#N)c(N)n3)CC2)cc(OCOC)c1I [Example 137, 4-amino-2-[1-(3-ethoxy-4-iodo-5-methoxymethoxy-benzyl)-piperidin-4-ylamino]-pyrimidine-5-carbonitrile] | 8.19
CCOc1cc(CN2CCC(Nc3ncc(-c4ccc(OC)cc4)cn3)CC2)ccc1Cl [Example 161, [1-(4-chloro-3-ethoxy-benzyl)-piperidin-4-yl]-[5-(4-methoxy-phenyl)-pyrimidin-2-yl]-amine] | 7.51

Reference: patent publication US7855194B2, “Pyrimidine, quinazoline, pteridine and triazine derivatives” (Hoffmann-La Roche Inc., priority 2006, dated 2010)
